Reference: PMC6326523, “A high-throughput screen to identify novel small molecule inhibitors of the Werner Syndrome Helicase-Nuclease (WRN)” (PLoS ONE, 2019)
pIC50: −log10 of the molar value. Where two headings read alike, the source gives them in different places.

How the values were obtained:
Type in all cases: biochemical
full-length WRN helicase [1] = molecular target: T1, full-length WRN helicase (Homo sapiens, UniProt Q14191); assay: Radiometric helicase inhibitor assay, full-length WRN unwinding of FORKR DNA substrate; settings: for remaining activity at 50 µM: read-out: % Control WRN Helicase Activity; for pIC50: radiometric assay, compound 0-100 μM, read-out: IC50;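 as to all read-outs here: WRN preincubated with compound 15 min at room temperature, then unwinding run 15 min at 37 °C with 2 mM ATP, relative to WRN unwinding without compound (100%)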
T1 construct: Full length recombinant WRN [18], BLM [19], and FANCJ [20] proteins were purified from insect cells; made in house; host or cells: insect cells
T1 sequence (Q14191 whole entry): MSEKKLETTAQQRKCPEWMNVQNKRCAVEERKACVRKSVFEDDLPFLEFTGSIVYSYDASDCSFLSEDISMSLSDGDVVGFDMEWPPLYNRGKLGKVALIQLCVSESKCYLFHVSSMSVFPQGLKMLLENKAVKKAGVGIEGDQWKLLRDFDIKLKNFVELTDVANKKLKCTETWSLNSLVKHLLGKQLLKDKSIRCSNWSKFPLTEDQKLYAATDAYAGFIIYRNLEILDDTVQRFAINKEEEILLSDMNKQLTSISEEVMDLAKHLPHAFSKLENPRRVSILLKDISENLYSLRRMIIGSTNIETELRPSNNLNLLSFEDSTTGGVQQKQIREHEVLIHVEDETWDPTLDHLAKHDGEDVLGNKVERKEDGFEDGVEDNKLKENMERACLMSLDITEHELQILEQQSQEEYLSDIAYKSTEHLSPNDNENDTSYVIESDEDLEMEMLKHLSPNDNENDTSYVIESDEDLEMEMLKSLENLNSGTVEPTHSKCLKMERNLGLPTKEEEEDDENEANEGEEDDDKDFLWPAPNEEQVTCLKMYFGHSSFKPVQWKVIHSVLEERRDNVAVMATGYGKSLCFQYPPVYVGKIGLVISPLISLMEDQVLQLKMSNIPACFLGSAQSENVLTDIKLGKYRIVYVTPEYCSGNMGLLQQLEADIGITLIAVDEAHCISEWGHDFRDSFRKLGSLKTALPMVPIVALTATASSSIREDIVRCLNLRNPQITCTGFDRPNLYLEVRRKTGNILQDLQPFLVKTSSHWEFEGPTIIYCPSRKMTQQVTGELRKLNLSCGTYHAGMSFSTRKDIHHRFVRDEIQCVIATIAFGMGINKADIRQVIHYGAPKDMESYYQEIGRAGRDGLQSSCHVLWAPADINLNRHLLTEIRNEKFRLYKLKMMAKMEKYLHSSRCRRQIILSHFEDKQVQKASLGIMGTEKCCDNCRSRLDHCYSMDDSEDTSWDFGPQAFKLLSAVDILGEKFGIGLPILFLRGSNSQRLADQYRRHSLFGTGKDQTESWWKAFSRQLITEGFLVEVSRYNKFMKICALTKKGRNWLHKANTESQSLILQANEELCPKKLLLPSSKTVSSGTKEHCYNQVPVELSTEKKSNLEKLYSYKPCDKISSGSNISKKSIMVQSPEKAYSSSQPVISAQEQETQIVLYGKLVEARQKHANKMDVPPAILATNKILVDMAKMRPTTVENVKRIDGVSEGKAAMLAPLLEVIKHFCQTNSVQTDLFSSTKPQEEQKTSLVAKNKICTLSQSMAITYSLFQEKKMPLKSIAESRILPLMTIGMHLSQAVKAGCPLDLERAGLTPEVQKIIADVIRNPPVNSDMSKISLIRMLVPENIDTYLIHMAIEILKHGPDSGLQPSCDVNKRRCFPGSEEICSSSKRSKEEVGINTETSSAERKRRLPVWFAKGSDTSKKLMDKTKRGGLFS
Description: Fifteen μL of reaction buffer was added to a microcentrifuge tube followed by the addition of 1 μL of selected compounds (0.5–100 μM final concentration) or DMSO. One μL of WRN (full length), RECQ1, FANCJ, BLM or control was added to each reaction and incubated at room temperature for 15 min. Three μL of substrate (0.5 nM FORKR and 2 mM ATP final concentrations) were added to all reactions which were incubated at 37°C for 15 min. Reactions were stopped with the addition of 20 μL of 2X STOP dye containing EDTA, glycerol, bromphenol blue and xylene cyanol. Samples were electrophoresed for 1.5 hr at 200 V on a 12% non-denaturing PAGE gel in 1X TBE Buffer.
The compounds were tested at a single concentration of 50 μM in the radiometric helicase assay with full-length recombinant WRN protein (1 nM) and the FORKR DNA substrate (0.5 nM) as described in the Materials and Methods section.
For each compound, we performed titrations over a wide range of concentrations with a fixed concentration of full-length WRN protein (1 nM), and quantitated unwinding as a percentage of full-length WRN unwinding of the FORKR DNA substrate (0.5 nM) in the absence of compound (Fig 6A and 6B, S3 Fig). […] In addition to determining an IC50 value for each compound, we also conducted helicase assays to determine the reversibility of inhibition by each compound tested. […] The reaction was diluted 100-fold with the addition of DNA substrate (0.5 nM final concentration) and ATP (2 mM final concentration) and unwinding was measured (Fig 7A–7D, S4 Fig). Inhibition was either classified as reversible, partially reversible, minimally reversible, or irreversible based on the ability of helicase activity to recover after dilution of the compound 100-fold.

full-length WRN helicase [2] = molecular target: T1, full-length WRN helicase; assay: Radiometric helicase inhibitor reversibility assay (100-fold dilution); design: key to Reversibility: (-) = irreversible; (+) = minimally reversible; (++) = partially reversible; (+++) = reversible; settings: for Reversibility: WRN 100 nM preincubated at 10-fold IC50, diluted 100-fold, unwinding 0-16 min; for Reversibility of inhibition (in words): full-length WRN
Description: WRN (full length, 100 nM concentration) was incubated with each small molecule inhibitor at a concentration 10-fold higher than the IC50 for that inhibitor, in a 10 μL reaction at room temperature. 1.5 μL of this reaction was added to 148.5 μL of reaction salts with 2 mM ATP, 0.5 nM FORKR reducing the full length WRN concentration to 1 nM and the drug concentration to 10-fold less than its IC50. Reactions were placed at 37°C and 20 μL of reaction were removed at specific intervals (0–16 min) and quenched with 20 μL of 2X STOP dye containing EDTA, glycerol, bromphenol blue and xylene cyanol. Samples were electrophoresed for 1.5 hr at 200 V on a 12% non-denaturing PAGE gel in 1X TBE Buffer.
Eighteen compounds were selected based on potency of inhibition in both the screening and radiometric assays, and exclusion of compounds with undesired chemical features. For each compound, we performed titrations over a wide range of concentrations with a fixed concentration of full-length WRN protein (1 nM), and quantitated unwinding as a percentage of full-length WRN unwinding of the FORKR DNA substrate (0.5 nM) in the absence of compound (Fig 6A and 6B, S3 Fig). […] In addition to determining an IC50 value for each compound, we also conducted helicase assays to determine the reversibility of inhibition by each compound tested. Details of the assay can be found in the Materials and Methods section, but briefly 100 nM WRN was incubated with each compound at a concentration 10-fold higher than its IC50 value. The reaction was diluted 100-fold with the addition of DNA substrate (0.5 nM final concentration) and ATP (2 mM final concentration) and unwinding was measured (Fig 7A–7D, S4 Fig). Inhibition was either classified as reversible, partially reversible, minimally reversible, or irreversible based on the ability of helicase activity to recover after dilution of the compound 100-fold. Table 2 summarizes the IC50 values and reversibility for each compound and includes IC50 values obtained from the screens for comparison.

[3] = molecular target: T2, GST-WRN500-946 helicase domain fragment (Homo sapiens, UniProt Q14191); assay: High-throughput fluorometric helicase screen, PubChem AID 651768; settings: initial qHTS; 20 nM GST-WRN500-946; 100 nM FORKF; NA = Not Active; read-out: IC50 (μM) Assay ID 651768
T2 construct: made in house; host or cells: insect cells
T2 sequence (Q14191 500-946): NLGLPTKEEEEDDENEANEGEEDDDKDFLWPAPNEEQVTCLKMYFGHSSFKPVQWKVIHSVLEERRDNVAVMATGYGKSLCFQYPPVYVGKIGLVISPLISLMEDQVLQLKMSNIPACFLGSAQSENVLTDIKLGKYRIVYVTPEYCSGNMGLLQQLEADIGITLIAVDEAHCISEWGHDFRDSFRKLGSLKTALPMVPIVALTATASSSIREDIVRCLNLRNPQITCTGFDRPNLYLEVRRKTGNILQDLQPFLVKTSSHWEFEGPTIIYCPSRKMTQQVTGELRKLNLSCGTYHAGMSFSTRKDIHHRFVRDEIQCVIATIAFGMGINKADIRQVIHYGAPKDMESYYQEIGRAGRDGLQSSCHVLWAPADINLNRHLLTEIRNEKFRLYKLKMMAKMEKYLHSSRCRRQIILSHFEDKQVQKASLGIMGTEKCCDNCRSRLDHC
Description: (§1) The structures of the members of this collection are available in the PubChem portal https://pubchem.ncbi.nlm.nih.gov/. For both the 350,000 small molecule collection and the LOPAC^1280 screens, 3 μL of GST-WRN500-946 or reaction buffer only were dispensed using a solenoid-valve nanoliter dispenser into a black 1536-well plate (Greiner). Twenty three nL of each serially diluted compound (0.08–50 μM for the LOPAC screen and 0.003–114 μM for the larger library screen) or control were added to each well using a Kalypsys pintool equipped with a 1536-pin array. Plates were incubated at room temperature for 15 min, followed by initiation of the reactions via the addition of 1 μL of substrate (100 nM FORKF and 2 mM ATP final concentrations). Plates were transferred to a ViewLux high-throughput CCD imager and fluorescence was measured in kinetic mode using an excitation filter of 525 nm and emission filter of 598 nm.
(§2) Zʹ factor, a measure for assay quality control was calculated using the formula Z′ = 1−(3σS^++3σS^−)∕|μS^+−μS^−| as described previously. In this formula, 3σS^+ represents 3 standard deviations from the mean of positive signals while 3σS^− represents 3 standard deviations from the mean of negative signals. μS^+ and μS^− represent the mean of positive signals and negative signals respectively. Percent activity was derived using in-house software (http://tripod.nih.gov/curvefit/). Dose-response curves were classified as described previously.
(§3) A collection of approximately 350,000 compounds is available for screening which has been assembled from multiple sources to provide diverse chemical scaffolds with known purity, identity and solubility. To perform the high-throughput screen of these compounds, we needed to produce approximately 50 milligrams of recombinant WRN helicase fragment. To accomplish this, we cloned the helicase domain fragment into several plasmids for either insect cell or bacterial expression to optimize expression and yield. We selected expression plasmids for insect cell expression with either a GST or MBP tag (image A in S1 Fig) and purified the protein (image B in S1 Fig). The GST-WRN500-946 fragment isolated from insect cells was used in the high throughput screen with the conditions described in Fig 2C (20 nM GST-WRN500-946, 100 nM FORKF DNA substrate) and a summary of the results can be found on PubChem (National Center for Biotechnology Information. PubChem BioAssay Database; Assay Identifier (AID) = 651768, https://pubchem.ncbi.nlm.nih.gov/bioassay/651768). […] To verify the active compounds, approximately 600 hit molecules were retested in a confirmatory screen also found on PubChem (National Center for Biotechnology Information. PubChem AID = 720497, https://pubchem.ncbi.nlm.nih.gov/bioassay/720497). Of these, a little less than four hundred compounds were confirmed as active compounds.

[4] = molecular target: T2, GST-WRN500-946 helicase domain fragment; assay: Confirmatory fluorometric helicase screen, PubChem AID 720497; settings: 20 nM GST-WRN500-946, 100 nM FORKF, NA = Not Active, read-out: IC50 (μM) Assay ID 720497
Description: as §1, §2, §3

[5] = molecular target: T3, WRN helicase domain fragment (Homo sapiens, UniProt Q14191); assay: WRN-hel-f2 protocol qHTS confirmatory (15 compound confirmatory assay); settings: NA = Not Active
T3 construct: GST (N); made in house
T3 sequence (Q14191 500-946): as above
Description: as §1

[6] = 50 μM compound, full-length WRN 1 nM, FORKR 0.5 nM
[7] = full-length WRN 1 nM, FORKR 0.5 nM

Row | Compound | remaining activity at 50 µM (full-length WRN helicase [1]; [6]) [%] | pIC50 (full-length WRN helicase [1]; [7]) | Reversibility (full-length WRN helicase [2]) | IC50 [3] [µM] | IC50 [4] [µM] | IC50 [5] [µM] | remaining activity at 50 µM (full-length WRN helicase [1]) [%] | Reversibility of inhibition (in words) (full-length WRN helicase [2])
1 | Cc1nn(-c2ccccc2)c2nc(-c3ccco3)cc(C(=O)O)c12 [MLS000060726-02] | 100 |  |  |  |  |  |  | 
2 | O=c1[nH]c2ccccc2n2c(-c3ccccc3)nnc12 [MLS000540817-03] | 99 |  |  |  |  |  |  | 
3 | Oc1ccc(C2=CSc3nnc(-c4ccco4)n3N2)cc1O [MLS000551562-03] | 92 |  |  |  |  |  |  | 
4 | Cc1cc(OCC(=O)Nc2ccc(N3CCN(C(=O)c4ccco4)CC3)cc2)cc(C)c1Cl [MLS000582679-02] | 64 |  |  |  |  |  |  | 
5 | O=C(O)c1ccccc1-c1ccc(/C=C/c2cc(C(F)(F)F)nc(O)n2)o1 [MLS000715904-02] | 76 |  |  |  |  |  |  | 
6 | O=C(c1cccc(-n2cccc2)c1)N1CCN(S(=O)(=O)c2ccccc2)CC1 [MLS001139594-03] | 4 | 5.00 | - | 4.7 | 4.3 | 0.35 |  | 
7 | Cc1ccc(CN(C)C(=O)CCc2nc(O)c3c4c(sc3n2)CCCC4)o1 [MLS001160745-02] | 8 | 4.96 | + | 44.6 | 9.6 | 22.4 |  | 
8 | Cc1ccc(C)c(NC(=O)CN(C)C(=O)c2cccc(-n3cccc3)c2)c1 [MLS001161412-02] | 5 |  |  |  |  |  |  | 
9 | CCc1nnc(NC(=O)c2cc(-c3ccc(C)o3)nc3ccccc23)s1 [MLS002179845-02] | 93 |  |  |  |  |  |  | 
10 | O=C(Nc1nncs1)c1cc(-c2ccco2)nc2ccccc12 [MLS002249549-02] | 69 |  |  |  |  |  |  | 
11 | COc1ccccc1Nc1ccc2c(O)cc(S(=O)(=O)O)cc2c1 [MLS002608028-02] | 3 | 5.70 | +++ | 2.7 | 6.1 | 0.35 |  | 
12 | CN(C)CC(C(=O)Cc1ccccc1)c1ccccc1 (centres unmarked) [MLS002608145-02] |  |  |  |  |  |  | 93 | 
13 | Oc1c(C(c2ccccc2)N2CCOCC2)ccc2ccccc12 (centres unmarked) [MLS002694128-02] | 0 |  |  |  |  |  |  | 
14 | CCCN(CCC)CCCNC(=O)c1cc2c(-c3ccc(OC)c(OC)c3)nn(C)c2s1 [NCGC00108865-03] | 109 |  |  |  |  |  |  | 
15 | COC(=O)c1cc(NC(=O)c2ccc3c(c2)NC(=O)c2ccccc2S3)cc(C(=O)OC)c1 [NCGC00113056-02] | 10 | 5.70 | + | 16.8 | 13.6 | 1.26 |  | 
16 | Cc1cc(OC(C)C(=O)Nc2cccc(-c3nc4ccccc4o3)c2)cc(C)c1Cl (centres unmarked) [NCGC00119189-02] | 65 |  |  |  |  |  |  | 

Row | Compound | remaining activity at 50 µM (full-length WRN helicase [1]; [6]) [%] | pIC50 (full-length WRN helicase [1]; [7]) | Reversibility (full-length WRN helicase [2]) | IC50 [3] [µM] | IC50 [4] [µM] | IC50 [5] [µM] | remaining activity at 50 µM (full-length WRN helicase [1]) [%] | Reversibility of inhibition (in words) (full-length WRN helicase [2])
17 | Cc1ccc(C(=O)Nc2nnc([S+](=O)([O-])N(C)Cc3ccco3)s2)cc1 [NCGC00120906-02] |  | 5.05 | - | 37.6 |  | 5.6 | 33 | irreversible
18 | CN(Cc1ccco1)[S+](=O)([O-])c1nnc(NC(=O)c2cccc(Cl)c2)s1 [NCGC00120928-02] | 13 | 4.82 | - | 39.8 |  | 12.5 |  | irreversible
19 | CCc1ccc(NC(=O)c2ccc3c(O)c([S+](=O)([O-])c4ccc(Cl)cc4)c(=O)[nH]c3c2)cc1 [NCGC00123016-02] |  | 4.30 | +++ | 26.6 |  | 39.8 | 20 | 
20 | CC(C)(C)c1ccc(-c2nc(SCCCOc3ccccc3)n3[nH]c(=O)cc3n2)cc1 [NCGC00128735-02] | 5 | 5.30 | +++ | 50.1 |  | 28.1 |  | 
21 | CCOc1ccc(-c2nc(SCC(=O)Nc3ccc(C)c(C)c3)n3[nH]c(=O)cc3n2)cc1 [NCGC00128865-02] | 20 | 5.00 | ++ | 21.1 | 15.2 | 1.8 |  | 
22 | Cc1ccc(-c2nc(SCc3ccc(Br)cc3)n3[nH]c(=O)cc3n2)cc1 [NCGC00129037-02] | 7 | 5.05 | - | 16.8 | 13.6 | 12.5 |  | 
23 | CC1=C(C(=O)Nc2ccccc2)C(c2ccc[nH]2)n2ncnc2N1 (centres unmarked) [NCGC00132363-04] | 30 | 4.60 | - | 11.9 | 7.6 |  |  | 
24 | COc1ccccc1N1CCN(C(=O)Cc2c(C(=O)O)c(C)cn2C)CC1 [NCGC00137902-02] | 113 |  |  |  |  |  |  | 
25 | Cc1cn(C)c(CC(=O)N2CCN(c3ccccc3F)CC2)c1C(=O)O [NCGC00137904-02] | 108 |  |  |  |  |  |  | 
26 | COc1ccc(N2CCN(C(=O)Cc3c(C(=O)O)c(C)cn3C)CC2)cc1 [NCGC00137930-02] | 99 |  |  |  |  |  |  | 
27 | O=c1cc(N2CCNCC2)nc2sc(-c3ccncc3)nn12 [NCGC00183602-01] | 0 | 5.30 | - | 7.5 | 6.1 | 6 |  | 
28 | Cc1ccc(N2CCN(c3cnn(-c4nc5ccccc5s4)c(=O)c3Cl)CC2C)cc1 (centres unmarked) [NCGC00295201-02] | 9 | 5.00 | +++ | 35.4 |  | 25.1 |  | 
29 | COc1ccc2nc(O)c(-c3noc(-c4cccs4)n3)cc2c1 [NCGC00307457-02] | 42 |  |  |  |  |  |  | 
30 | COc1ccc(-c2cc(C(F)(F)F)nc([S+](=O)([O-])CCC(=O)Nc3ccc(C)cc3)n2)cc1 [NCGC00317517-02] |  |  |  |  |  |  | 93 | 
31 | COc1ccc(N[S+](=O)([O-])c2cc(C(=O)Nc3ccc4nc(C)sc4c3)ccc2C)cc1 [NCGC00348187-01] |  |  |  |  |  |  | 83 | 
